The supplement of paper PMC8960247
± gives the standard error.

Experiments:
[1] = test system: 621-102 (TSC2-deficient); assay: relative viability vs DMSO; higher = less cytotoxic; conditions: serum: 10% FBS, 72 h
[2] = test system: 621-103 (TSC2-rescued); assay: as above; conditions: serum: 10% FBS, 72 h
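Note: immortalized renal angiomyolipoma cells stably carrying empty vector or TSC2, dosed in 384-well plates in DMEM, viability normalized to vehicle-treated wells within each plate.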

## COc1cc2ncnc(Nc3cccc(Br)c3)c2cc1OC
[1]; 0.0001 µM
  relative viability: 96.7 ± 1%
[1]; 0.001 µM
  relative viability: 107 ± 3.8%
[1]; 0.01 µM
  relative viability: 115 ± 5.2%
[1]; 0.1 µM
  relative viability: 105.5 ± 0.2%
[1]; 1 µM
  relative viability: 107.6 ± 0.58%
[1]; 10 µM
  relative viability: 75.6 ± 6.2%
[2]; 0.0001 µM
  relative viability: 102 ± 1.5%
[2]; 0.001 µM
  relative viability: 102 ± 1.7%
[2]; 0.01 µM
  relative viability: 103.2 ± 1%
[2]; 0.1 µM
  relative viability: 98.4 ± 2.3%
[2]; 1 µM
  relative viability: 101 ± 1.6%
[2]; 10 µM
  relative viability: 92.1 ± 4.8%

## COc1ccc(-c2cc3c(C)nc(N)nc3n([C@H]3CC[C@H](OCCO)CC3)c2=O)cn1
[1]; 0.0001 µM
  relative viability: 101 ± 5.6%
[1]; 0.001 µM
  relative viability: 110 ± 2.5%
[1]; 0.01 µM
  relative viability: 91.2 ± 5%
[1]; 0.1 µM
  relative viability: 65.6 ± 0.94%
[1]; 1 µM
  relative viability: 26.7 ± 0.68%
[1]; 10 µM
  relative viability: 14.1 ± 0.26%
[2]; 0.0001 µM
  relative viability: 92.8 ± 1.8%
[2]; 0.001 µM
  relative viability: 98.4 ± 2.6%
[2]; 0.01 µM
  relative viability: 88.1 ± 2.7%
[2]; 0.1 µM
  relative viability: 56.7 ± 2%
[2]; 1 µM
  relative viability: 30.52 ± 0.21%
[2]; 10 µM
  relative viability: 18.61 ± 0.18%

## COc1cccc(-c2cc(=O)c3ccccc3o2)c1N
[1]; 0.0001 µM
  relative viability: 109 ± 2.8%
[1]; 0.001 µM
  relative viability: 103 ± 3%
[1]; 0.01 µM
  relative viability: 104.2 ± 0.83%
[1]; 0.1 µM
  relative viability: 104 ± 6%
[1]; 1 µM
  relative viability: 107.8 ± 0.69%
[1]; 10 µM
  relative viability: 109 ± 2.6%
[2]; 0.0001 µM
  relative viability: 100 ± 2.6%
[2]; 0.001 µM
  relative viability: 99.7 ± 1.8%
[2]; 0.01 µM
  relative viability: 103 ± 1.9%
[2]; 0.1 µM
  relative viability: 99.8 ± 1.2%
[2]; 1 µM
  relative viability: 98.6 ± 2.6%
[2]; 10 µM
  relative viability: 97.6 ± 3.2%

## C[C@@H](Oc1cc(-c2cnn(C3CCNCC3)c2)cnc1N)c1c(Cl)ccc(F)c1Cl
[1]; 0.0001 µM
  relative viability: 105.6 ± 0.81%
[1]; 0.001 µM
  relative viability: 97.3 ± 6.2%
[1]; 0.01 µM
  relative viability: 104 ± 2.6%
[1]; 0.1 µM
  relative viability: 106 ± 1.4%
[1]; 1 µM
  relative viability: 98 ± 2.9%
[1]; 10 µM
  relative viability: 10.7 ± 1.4%
[2]; 0.0001 µM
  relative viability: 99.34 ± 0.12%
[2]; 0.001 µM
  relative viability: 102.8 ± 0.57%
[2]; 0.01 µM
  relative viability: 102 ± 1.5%
[2]; 0.1 µM
  relative viability: 103 ± 1.6%
[2]; 1 µM
  relative viability: 101.6 ± 0.21%
[2]; 10 µM
  relative viability: 5.36 ± 0.69%

## C[C@@H]1CCO[C@H]2Cn3cc(C(=O)NCc4ccc(F)cc4F)c(=O)c(O)c3C(=O)N12
[1]; 0.0001 µM
  relative viability: 102 ± 1.5%
[1]; 0.001 µM
  relative viability: 104 ± 2.7%
[1]; 0.01 µM
  relative viability: 102.2 ± 0.83%
[1]; 0.1 µM
  relative viability: 106 ± 2.5%
[1]; 1 µM
  relative viability: 93.7 ± 9.2%
[1]; 10 µM
  relative viability: 108 ± 3.5%
[2]; 0.0001 µM
  relative viability: 111.7 ± 0.85%
[2]; 0.001 µM
  relative viability: 109 ± 5.8%
[2]; 0.01 µM
  relative viability: 111 ± 2.1%
[2]; 0.1 µM
  relative viability: 117 ± 2.9%
[2]; 1 µM
  relative viability: 112 ± 4%
[2]; 10 µM
  relative viability: 109 ± 3.2%

## C[S+]([O-])c1ccc(-c2nc(-c3ccc(F)cc3)c(-c3ccncc3)[nH]2)cc1 (configuration not stated)
[1]; 0.0001 µM
  relative viability: 112 ± 5%
[1]; 0.001 µM
  relative viability: 108.1 ± 0.69%
[1]; 0.01 µM
  relative viability: 98.1 ± 2.8%
[1]; 0.1 µM
  relative viability: 102 ± 1.2%
[1]; 1 µM
  relative viability: 111 ± 2%
[1]; 10 µM
  relative viability: 110 ± 2.8%
[2]; 0.0001 µM
  relative viability: 101.3 ± 0.64%
[2]; 0.001 µM
  relative viability: 98.42 ± 0.75%
[2]; 0.01 µM
  relative viability: 98.6 ± 1.3%
[2]; 0.1 µM
  relative viability: 99.1 ± 2%
[2]; 1 µM
  relative viability: 100 ± 1.8%
[2]; 10 µM
  relative viability: 98.1 ± 1.3%

## Cc1cccc(-c2[nH]c(C(C)(C)C)nc2-c2ccc3nccnc3c2)n1
[1]; 0.0001 µM
  relative viability: 115.4 ± 0.35%
[1]; 0.001 µM
  relative viability: 111 ± 2.5%
[1]; 0.01 µM
  relative viability: 101.9 ± 0.66%
[1]; 0.1 µM
  relative viability: 108.6 ± 0.23%
[1]; 1 µM
  relative viability: 105 ± 2.2%
[1]; 10 µM
  relative viability: 38.9 ± 2.9%
[2]; 0.0001 µM
  relative viability: 98.4 ± 1.4%
[2]; 0.001 µM
  relative viability: 99.6 ± 2.7%
[2]; 0.01 µM
  relative viability: 97.58 ± 0.26%
[2]; 0.1 µM
  relative viability: 95.9 ± 2.7%
[2]; 1 µM
  relative viability: 97.18 ± 0.62%
[2]; 10 µM
  relative viability: 83.8 ± 1.5%

## Cn1cc(C2=C(c3ccc(Cl)cc3Cl)C(=O)NC2=O)c2ccccc21
[1]; 0.0001 µM
  relative viability: 107.48 ± 0.025%
[1]; 0.001 µM
  relative viability: 103 ± 2.8%
[1]; 0.01 µM
  relative viability: 98.2 ± 1.1%
[1]; 0.1 µM
  relative viability: 90.4 ± 5.3%
[1]; 1 µM
  relative viability: 96.83 ± 0.6%
[1]; 10 µM
  relative viability: 97.5 ± 1.9%
[2]; 0.0001 µM
  relative viability: 77.6 ± 1.8%
[2]; 0.001 µM
  relative viability: 84.2 ± 1.4%
[2]; 0.01 µM
  relative viability: 89.8 ± 2.4%
[2]; 0.1 µM
  relative viability: 92.5 ± 5.7%
[2]; 1 µM
  relative viability: 80.2 ± 1.9%
[2]; 10 µM
  relative viability: 76.2 ± 6.7%

## NC(=O)c1ccc(-c2nc(-c3ccccn3)c(-c3ccc4c(c3)OCO4)[nH]2)cc1
[1]; 0.0001 µM
  relative viability: 111 ± 2.5%
[1]; 0.001 µM
  relative viability: 116 ± 1.5%
[1]; 0.01 µM
  relative viability: 114.2 ± 0.63%
[1]; 0.1 µM
  relative viability: 117 ± 3.9%
[1]; 1 µM
  relative viability: 112.6 ± 1%
[1]; 10 µM
  relative viability: 106.7 ± 0.3%
[2]; 0.0001 µM
  relative viability: 102 ± 3.6%
[2]; 0.001 µM
  relative viability: 108.5 ± 0.46%
[2]; 0.01 µM
  relative viability: 111 ± 4.9%
[2]; 0.1 µM
  relative viability: 98.44 ± 0.36%
[2]; 1 µM
  relative viability: 98.1 ± 1.6%
[2]; 10 µM
  relative viability: 94.07 ± 0.91%

## NC1=N[C@@]2(c3cc(NC(=O)c4ccc(F)cn4)ccc3F)COC[C@H]2CS1
[1]; 0.0001 µM
  relative viability: 105 ± 1.8%
[1]; 0.001 µM
  relative viability: 105 ± 1.3%
[1]; 0.01 µM
  relative viability: 105 ± 0.55%
[1]; 0.1 µM
  relative viability: 100 ± 1.3%
[1]; 1 µM
  relative viability: 99.9 ± 2%
[1]; 10 µM
  relative viability: 96.4 ± 1.9%
[2]; 0.0001 µM
  relative viability: 101 ± 4.3%
[2]; 0.001 µM
  relative viability: 101 ± 3.9%
[2]; 0.01 µM
  relative viability: 100 ± 1.9%
[2]; 0.1 µM
  relative viability: 101 ± 2%
[2]; 1 µM
  relative viability: 99.2 ± 2.8%
[2]; 10 µM
  relative viability: 93.7 ± 1.1%

## O=C(NOCC(O)CO)c1cc(Br)c(F)c(F)c1Nc1ccc(I)cc1F (configuration not stated)
[1]; 0.0001 µM
  relative viability: 105 ± 4.9%
[1]; 0.001 µM
  relative viability: 99.7 ± 2.8%
[1]; 0.01 µM
  relative viability: 105.5 ± 0.56%
[1]; 0.1 µM
  relative viability: 106 ± 1.1%
[1]; 1 µM
  relative viability: 100 ± 1.4%
[1]; 10 µM
  relative viability: 93.7 ± 1.3%
[2]; 0.0001 µM
  relative viability: 96.8 ± 0.31%
[2]; 0.001 µM
  relative viability: 95 ± 3%
[2]; 0.01 µM
  relative viability: 98.9 ± 1.2%
[2]; 0.1 µM
  relative viability: 93.54 ± 0.87%
[2]; 1 µM
  relative viability: 93.44 ± 0.33%
[2]; 10 µM
  relative viability: 74.3 ± 5.1%

## O=C(NOC[C@H](O)CO)c1ccc(F)c(F)c1Nc1ccc(I)cc1F
[1]; 0.0001 µM
  relative viability: 98.6 ± 2.5%
[1]; 0.001 µM
  relative viability: 104 ± 4.5%
[1]; 0.01 µM
  relative viability: 106.7 ± 0.59%
[1]; 0.1 µM
  relative viability: 106.2 ± 0.49%
[1]; 1 µM
  relative viability: 98.6 ± 1%
[1]; 10 µM
  relative viability: 52.32 ± 0.36%
[2]; 0.0001 µM
  relative viability: 96.2 ± 1.3%
[2]; 0.001 µM
  relative viability: 98.8 ± 2.7%
[2]; 0.01 µM
  relative viability: 100.2 ± 0.66%
[2]; 0.1 µM
  relative viability: 94.5 ± 0.99%
[2]; 1 µM
  relative viability: 87.31 ± 0.23%
[2]; 10 µM
  relative viability: 64.6 ± 1.8%

## O=c1cc(N2CCOCC2)oc2c(-c3ccccc3)cccc12
[1]; 0.0001 µM
  relative viability: 95.6 ± 1.2%
[1]; 0.001 µM
  relative viability: 111 ± 5%
[1]; 0.01 µM
  relative viability: 119.9 ± 0.6%
[1]; 0.1 µM
  relative viability: 113.8 ± 0.48%
[1]; 1 µM
  relative viability: 104 ± 1.5%
[1]; 10 µM
  relative viability: 80.2 ± 1.1%
[2]; 0.0001 µM
  relative viability: 99.7 ± 1.1%
[2]; 0.001 µM
  relative viability: 100.3 ± 0.45%
[2]; 0.01 µM
  relative viability: 99.792 ± 0.068%
[2]; 0.1 µM
  relative viability: 97.55 ± 0.48%
[2]; 1 µM
  relative viability: 101.1 ± 0.21%
[2]; 10 µM
  relative viability: 65.2 ± 1.9%

## OCCn1cc(-c2cnc3nnn(Cc4ccc5ncccc5c4)c3n2)cn1
[1]; 0.0001 µM
  relative viability: 103 ± 2.2%
[1]; 0.001 µM
  relative viability: 98.7 ± 1.2%
[1]; 0.01 µM
  relative viability: 89.7 ± 2.1%
[1]; 0.1 µM
  relative viability: 100 ± 3.4%
[1]; 1 µM
  relative viability: 96 ± 2.5%
[1]; 10 µM
  relative viability: 93.2 ± 1.2%
[2]; 0.0001 µM
  relative viability: 104.7 ± 0.61%
[2]; 0.001 µM
  relative viability: 102 ± 0.94%
[2]; 0.01 µM
  relative viability: 101.9 ± 0.21%
[2]; 0.1 µM
  relative viability: 103 ± 1.6%
[2]; 1 µM
  relative viability: 103.2 ± 0.56%
[2]; 10 µM
  relative viability: 99.7 ± 2.3%

## Oc1ccc(-c2nc(-c3ccc(F)cc3)c(-c3ccncc3)[nH]2)cc1
[1]; 0.0001 µM
  relative viability: 104 ± 3.7%
[1]; 0.001 µM
  relative viability: 106.7 ± 0.78%
[1]; 0.01 µM
  relative viability: 104 ± 3.6%
[1]; 0.1 µM
  relative viability: 104.8 ± 0.31%
[1]; 1 µM
  relative viability: 103.8 ± 0.12%
[1]; 10 µM
  relative viability: 105 ± 2.4%
[2]; 0.0001 µM
  relative viability: 99.5 ± 0.91%
[2]; 0.001 µM
  relative viability: 99.83 ± 0.79%
[2]; 0.01 µM
  relative viability: 99.49 ± 0.82%
[2]; 0.1 µM
  relative viability: 97.7 ± 1.4%
[2]; 1 µM
  relative viability: 98.4 ± 1.1%
[2]; 10 µM
  relative viability: 98.8 ± 1.3%

## Oc1ccc([C@@H]2Oc3ccc(O)cc3[C@@H]3CCC[C@@H]32)cc1
[1]; 0.0001 µM
  relative viability: 120.08 ± 0.051%
[1]; 0.001 µM
  relative viability: 124 ± 1.3%
[1]; 0.01 µM
  relative viability: 105 ± 1.5%
[1]; 0.1 µM
  relative viability: 108 ± 2.7%
[1]; 1 µM
  relative viability: 113 ± 5.1%
[1]; 10 µM
  relative viability: 65.5 ± 4%
[2]; 0.0001 µM
  relative viability: 106 ± 1.5%
[2]; 0.001 µM
  relative viability: 101.57 ± 0.083%
[2]; 0.01 µM
  relative viability: 103 ± 1.1%
[2]; 0.1 µM
  relative viability: 106 ± 2.1%
[2]; 1 µM
  relative viability: 103.1 ± 0.19%
[2]; 10 µM
  relative viability: 66.2 ± 5.5%
